Source: patent publication US8071551B2, “Methods and compositions for treating diabetes” (BioHolding, Inc., priority 1999, dated 2011)

What was measured:
[1] = tested on: RCG Neuron (rat cerebral granule) cells; experiment: Apoptosis induced by depletion of serum in RCG neuron cells (Hoechst 33258 staining, fluorescence microscope); assay type: cell-based; settings: BME without serum, 10 hours, Hoechst dye 33258
Method: RCG neuronal cells are seeded into cell culture dishes in 400 μl cell culture medium (Eagle's basal medium, BME) containing 10% (v/v) FBS. At day two the now conditioned medium is removed and the cells are treated for 10 hours as follows:
Then the medium is replaced with 4% (w/v) paraformaldehyde, incubated for 15 minutes at room temperature, and the cells stained with Hoechst dye 33258 (8 μg/ml) for 15 minutes at room temperature. The apoptosis in the cells is evaluated using a fluorescence microscope by an evaluator blinded to the method of treatment.

[2] = tested on: Primary rat brain granule cells; experiment: Apoptosis associated with serum depletion in primary rat brain granule cells; assay type: cell-based; settings: α1-antitrypsin 3.0 mg/ml, one hour pretreatment, medium devoid of fetal bovine serum, 24 hours of culture
Method: Primary rat brain granule cells are pretreated for one hour in the absence or presence of α1-antitrypsin (3.0 mg/ml), followed by replacement of the cell culture medium with either control medium containing 10% (vol/vol) fetal bovine serum, medium devoid of fetal bovine serum, or medium devoid of fetal bovine serum but containing α1-antitrypsin.

Compound: Cc1cccc(Cc2nnc(C(=O)[C@@H](NC(=O)[C@@H]3CCCN3C(=O)[C@@H](NC(=O)OCc3ccccc3)C(C)C)C(C)C)o2)c1 [CE-2072, benzyloxcarbonyl-L-valyl-N-[1-(2-[5-(3-methylbenzyl)-1,3,4-oxadiazolyl]carbonyl)-2-(S)-Methylpropyl]-L-prolinamide, reference compound]
- apoptosis induced by depletion of serum ([1]; CE-2072 60 μM in DMSO): blocked

Compound: lyophilized α1-antitrypsin: lyophilized preparation of the serine protease inhibitor α1-antitrypsin
- apoptosis induced by depletion of serum ([1]; lyophilized AAT 50 μM): blocked

Compound: α1-Antitrypsin: serine protease inhibitor α1-antitrypsin
- apoptosis associated with serum depletion [2]: completely reverses
